Among the data in PubChem BioAssay (NCI) are TGI values, retold here.

Some test systems named below: A549 NSCLC; COLO 205 colon; M14 melanoma; SNB-78 CNS; MALME-3M melanoma; MDA-N; DU-145 prostate; TK-10 renal; OVCAR-3 ovarian; NCI/ADR-RES ovarian; OVCAR-5 ovarian; NCI-H226 lung; HL-60(TB) leukemia; UACC-257 melanoma; OVCAR-4 ovarian; SF-268 CNS; SK-MEL-5 melanoma; HS 578T breast; RXF 393 renal; UO-31 renal.
What all share (assay): NCI anticancer screen, dose series, 48 h

SMILES strings stand for the structures.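 How tested: cells in 96-well plates exposed to compound for 48 hours at five concentrations. Definition used: TGI = concentration required for complete inhibition of growth.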

With `CCSc1nc(=[N+]2CCCC2)ss1`, the TGI in the test on A549 NSCLC was over 100 µM; with COLO 205 colon it was over 49.3 µM; in the test with M14 melanoma it was over 100 µM; in the test with SNB-78 CNS, over 100 µM; in the test on MALME-3M melanoma, over 100 µM; in the test on MDA-N, over 100 µM. Moreover, the TGI with DU-145 prostate was over 100 µM; in the test with TK-10 renal, over 100 µM; in the test with OVCAR-3 ovarian, 48.2 µM; in the test on NCI/ADR-RES ovarian it was over 100 µM; in the test on OVCAR-5 ovarian, over 100 µM; with NCI-H226 lung it was over 91.3 µM. Besides, the TGI in the test on HL-60(TB) leukemia is 26.6 µM; in the test with UACC-257 melanoma, over 100 µM; in the test with OVCAR-4 ovarian, over 100 µM; in the test with SF-268 CNS, over 100 µM; in the test on SK-MEL-5 melanoma, 3.55 µM; in the test on HS 578T breast it was over 100 µM. Further, the TGI with RXF 393 renal is over 83.3 µM; in the test with UO-31 renal, over 100 µM.

With `O=C(NN1C(=O)CSC1c1ccc(C(F)(F)F)cc1)c1ccncc1` (stereo not given), the TGI in the test with A549 NSCLC was over 100 µM; in the test on SNB-78 CNS it was over 31.6 µM; in the test on MALME-3M melanoma it was over 100 µM; in the test with OVCAR-3 ovarian, over 100 µM; with NCI/ADR-RES ovarian, over 100 µM; with OVCAR-5 ovarian it was over 100 µM. In addition, the TGI in the test on NCI-H226 lung, in the test on HL-60(TB) leukemia, with UACC-257 melanoma, with OVCAR-4 ovarian, in the test on SF-268 CNS and with SK-MEL-5 melanoma was over 100 µM throughout. For the same compound, the TGI in the test with RXF 393 renal and in the test on UO-31 renal was over 100 µM throughout.

Turning to `Cc1ccc2c(C)c3ccc4ccccc4c3c[n+]2c1`, the TGI is over 100 µM with A549 NSCLC; 27.2 µM with COLO 205 colon; 33.9 µM in the test with M14 melanoma; over 100 µM in the test on SNB-78 CNS; 9.74 µM in the test with MALME-3M melanoma; over 100 µM with TK-10 renal. Besides, the TGI is 38.1 µM with OVCAR-3 ovarian; over 100 µM with OVCAR-5 ovarian; 25.4 µM with NCI-H226 lung; over 100 µM in the test with HL-60(TB) leukemia; 33.7 µM in the test on UACC-257 melanoma; 45.4 µM with OVCAR-4 ovarian. The TGI is 14.8 µM with SF-268 CNS, 25.4 µM in the test with SK-MEL-5 melanoma, 67.4 µM with RXF 393 renal and over 100 µM with UO-31 renal.

Turning to `COC1=CC(=O)c2c(O)c3c(c(O)c2C1=O)C=C(C)OC3O` (stereo not given), the TGI amounted to 4.35 µM in the test on A549 NSCLC; 0.746 µM in the test on COLO 205 colon; 0.845 µM in the test on M14 melanoma; 4.14 µM with SNB-78 CNS; 0.877 µM with MALME-3M melanoma; 3.08 µM in the test on MDA-N. Besides, the TGI amounted to 2.18 µM with DU-145 prostate; 7.9 µM in the test on TK-10 renal; 6.33 µM in the test on OVCAR-3 ovarian; 3.76 µM with NCI/ADR-RES ovarian; 5.73 µM with OVCAR-5 ovarian; 8.24 µM with NCI-H226 lung. The TGI with HL-60(TB) leukemia was over 23 µM; in the test on UACC-257 melanoma, 0.754 µM; in the test on OVCAR-4 ovarian, 4.39 µM; in the test on SF-268 CNS it was 5.86 µM; with SK-MEL-5 melanoma, 0.66 µM; with HS 578T breast, 7.9 µM. The TGI in the test on RXF 393 renal was found to be 3.92 µM; in the test with UO-31 renal, 13.3 µM.

On to `CC1OC1C(=O)C1(O)C(C)C(O)C23OC2(C(O)c2c(O)cccc2C3=O)C1O` (stereo not given), for which the TGI with A549 NSCLC was determined as 0.519 µM; with COLO 205 colon, 0.223 µM; in the test on SNB-78 CNS, 3.46 µM; in the test with MALME-3M melanoma it was 0.247 µM; in the test on OVCAR-3 ovarian, 0.352 µM; in the test on NCI/ADR-RES ovarian it was 0.732 µM. Besides, the TGI is 3.08 µM in the test on OVCAR-5 ovarian; 0.838 µM in the test on NCI-H226 lung; 0.383 µM with HL-60(TB) leukemia; 0.714 µM in the test on UACC-257 melanoma; 0.0982 µM in the test on OVCAR-4 ovarian; 0.525 µM with SF-268 CNS. The TGI in the test with SK-MEL-5 melanoma came to 0.534 µM; in the test on RXF 393 renal, 0.599 µM; in the test with UO-31 renal, 0.565 µM.
